Holding throughout (assay): DTP human tumour cell line panel, 48 h
For test [1], the system named is IGROV1 ovarian.
Test [2] concerns SF-539 CNS.
Test [3] deals with K-562 leukemia.
In test [4] the test system is SW-620 colon.
Test [5] has as its system SF-295 CNS.
Test [6] deals with NCI-H23 lung.
The subject of test [7] is A498 renal.
Test [8] relates to OVCAR-4 ovarian.
Test [9] concerns OVCAR-8 ovarian.
In test [10] the test system is HCT-116 colon.

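Compound exposure: 48 hours, 5 concentrations, 96-well plates. GI50 is the concentration that inhibits growth by half. At the TGI there is no net growth.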

A word on the TGI: it is the concentration giving total growth inhibition. Take `O=C(Nc1ccccc1C(=O)NC(=O)c1ccccc1NC(=O)c1ccccc1)c1ccccc1`: the TGI in test [1] stood at 5.93 µM; in [2] it was 18.9 µM; in test [3], 18.3 µM; in [4], 18.6 µM; in test [5] it was 26.6 µM; in [6], 17.1 µM. Besides, the TGI stood at 33.3 µM in test [7], 18 µM in [8], 23 µM in [9] and 13.5 µM in test [10].

On to `CCCCCCCCCC1CC(=O)OC23CCCC(=O)C12O3` (centres undefined), for which the TGI in test [1], in test [2], in test [3], in test [4], in test [5] and in test [6] was > 100 µM throughout. The TGI in test [7], in [8], in [9] and in test [10] was > 100 µM throughout.

A word on the GI50: it is the concentration at which growth is held to half of that of the control. Regarding `O=c1[nH]c(=S)[nH]c(O)c1/C=C1\C=Nc2ccccc21`, the GI50 in test [1] was 1.02 µM; in test [2], 3.11 µM; in test [3], 8.04 µM; in test [4], 1.83 µM; in test [5], 1.81 µM; in test [6], 12.4 µM. The GI50 in test [7] was 12.3 µM; in [8] it was 21.2 µM; in test [9] it was 3.47 µM; in test [10] it was 2.49 µM. In addition, the TGI is 5.55 µM in [1]; 9.87 µM in [2]; > 100 µM in [3]; 3.78 µM in [4]; 6.84 µM in [5]; 44.2 µM in test [6]. Besides, the TGI in test [7] was 28.4 µM; in test [8], > 100 µM; in [9], > 100 µM; in [10], 10.1 µM.

As for `O=C1C=CC2(CCC23C=CC(=O)O3)O1` (centres undefined), the TGI in test [1], in test [2], in test [3], in [4], in test [5] and in [6] was > 100 µM each time. Also, the TGI in [7], in [8], in test [9] and in test [10] was > 100 µM throughout.

Consider `CCOC(=O)C[C@@]12CCCN[C@]1(C)CCc1ccccc12`, for which the TGI in test [1], in [2], in [3], in test [4], in test [5] and in test [6] was > 100 µM each time. Besides, the TGI in [7], in test [8], in test [9] and in test [10] was > 100 µM in each case.

Regarding `Cc1nc2ccncc2[nH]1`, the TGI in [1], in test [2], in test [3], in test [4], in test [5] and in test [6] was > 100 µM each time. For the same compound, the TGI in test [7], in test [8], in test [9] and in test [10] was > 100 µM throughout.

Consider `N#CN1CC[C@H](C(=O)Nc2ncc(-c3ccccc3)s2)C1`, for which the GI50 in test [1] is 0.449 µM; in [2], 0.294 µM; in test [3], 0.455 µM; in test [4] it was 0.313 µM; in [5], 1.22 µM; in test [6] it was 0.705 µM. Also, the GI50 in [7] is 1.62 µM; in [8] it was 0.673 µM; in [9], 0.45 µM; in test [10] it was 0.323 µM. The TGI in test [1] amounted to 5.59 µM; in test [2] it was 1.38 µM; in test [3], 11 µM; in test [4], 14.4 µM; in test [5] it was 6.44 µM; in test [6], 6.46 µM. The concentration for total growth inhibition (TGI) in test [7] was found to be 3.45 µM; in test [8], 5.59 µM; in test [9], 6.46 µM; in test [10] it was 2.18 µM.

As for `N#CC(C(=O)Nc1ccccc1)C1=C(Cl)C(=O)c2ccccc2C1=O` (centres undefined), the TGI in test [1] stood at 34.8 µM; in test [2] it was 28.8 µM; in test [3], 52.5 µM; in [4], 50 µM; in test [5] it was 36.5 µM; in test [6], 36.5 µM. Besides, the TGI in test [7] was > 100 µM; in test [8], 31 µM; in test [9], 46.1 µM; in [10], 27.3 µM.

Regarding `COc1ccc(N(CC(=O)O)N=O)cc1`, the TGI in test [1], in test [2], in test [3], in [4], in [5] and in [6] was > 100 µM in each case. In addition, the TGI in [7], in test [8], in test [9] and in [10] was > 100 µM throughout.

Turning to `Nc1c(C(=O)Nc2ccccc2)sc2nc3c(cc12)C(=O)CCC3`, the GI50 is 1.01 µM in [1]; 0.384 µM in [2]; 0.287 µM in [3]; 0.333 µM in test [4]; 0.435 µM in test [5]; 0.833 µM in test [6]. In addition, the GI50 in test [7] was 0.282 µM; in test [8], 0.81 µM; in [9], 2.46 µM; in [10], 0.512 µM. Moreover, the TGI is > 100 µM in test [1]; > 26.1 µM in test [2]; > 100 µM in test [3]; > 100 µM in test [4]; > 100 µM in test [5]; > 100 µM in test [6]. The TGI in test [8], in test [9] and in test [10] was > 100 µM in each case.

The record behind these values is PubChem BioAssay (NCI).
